Patent publication US10344330B2, “Glatiramer acetate response biomarker mRNA potency assay” (Mylan Inc., priority 2013, dated 2019)

What was measured:
[1] = test system: mIFN-γ mRNA in primary LN cells; assay: mIFN-γ mRNA by real-time PCR in stimulated LN cells of immunized (SJL/J×BALB/C)F1 mice (Example I); type: cell-based, mouse
Protocol: For each of the three experiments summarized in Table 1, female (SJL/J×BALB/C) F1 hybrid (Jackson Laboratory) mice were immunized by footpad injection with either 250 μg GMA (Mylan Pharmaceuticals, Inc.) and CFA (Sigma Aldrich), or Mannitol and CFA (as a negative control). The GA solution was diluted to 5 mg/mL with Dulbecco's Phosphate-buffered saline. A dose solution was then prepared by mixing the diluted GA solution (5 mg/mL) and CFA (1:1) until well-emulsified. Each mouse received a total injection volume of 0.1 mL (250 μg GA). Animals were immunized on Day 0. Immunized animals were sacrificed via cervical dislocation on Day 10 following immunization. […] The LN were washed 3 times with −5 mL of RPMI medium, and the LN cells isolated by pressing the LN with a syringe plunger. […] The cell suspension was centrifuged at about 200×g for 10 minutes at about 4° C. and re-suspended in ice cold enriched DCCM-1 medium. The LN cells (2.5×10^6 cells/cm^2) were plated in the wells of a 48-well tissue culture plate and stimulated with GA or controls.
Expression of cytokine mRNA was quantitatively analyzed using a Real-Time PCR system (7500, Applied Biosystems).
(DCCM1 from Beit Haemek Ltd.; Cat. No. 05 010 1A). There was no MBP treatment for the 2-hour groups.
Group 1B animals were female (SJL/J×BALB/C) F1 hybrid (Jackson Laboratory) mice immunized by footpad injection with either 250 μg GA and CFA, or Mannitol and CFA (as a negative control). A dose solution was prepared by mixing a diluted GA solution (5 mg/mL) and CFA (1:1). Each mouse received a total injection volume of […] (250 μg GA). Animals were immunized on Day 0. Immunized animals were sacrificed via cervical dislocation on Day 10 following immunization. Lymph nodes from immunized mice were removed and isolated. LN cells (2.5×10^6 cells/cm^2) were plated in the wells of a 48-well tissue culture plate for stimulation with GA.
Expression of cytokine mRNA was quantitatively analyzed 4 and 6 hours after using a Real-Time PCR system (7500, Applied Biosystems).

TNF-α mRNA in LN cells = assay: TNF-α mRNA by real-time PCR in LN cells of GA-immunized CD-1, BALB/cByJ, SJL/J mice (Example III); type: cell-based, mouse; details: 6 hours
Protocol: On Day 0, mice were immunized with 250 μg GA (GMA, Mylan Pharmaceuticals, Inc.) and CFA. The GA solution (20 mg/mL) was diluted with Dulbecco's Phosphate-Buffered Saline to 5 mg/mL. The dosing formulation consisted of equal volumes of the diluted GA solution (5 mg/mL) and CFA solution, mixed until well-emulsified. Animals were weighed and allocated to groups. Animals were dosed by injection into four footpads. The injection volume per animal was 0.1 mL (about 10 μL into each front footpad, and 40 μL into each hind footpad).
Immunized animals were euthanized by cervical dislocation on Day 10 post-immunization. Lymph node cells were isolated from animals and treated with Myelin Basic Protein (MBP, a negative control), Concanavalin A (ConA, a positive control) or GA as shown in Table 16. Lymph nodes in the axillary and popliteal regions were removed aseptically in a purifier clean bench. […] The LN were then washed 3 times with −5 mL of RPMI medium, and isolated by pressing the LN with a syringe plunger. […] The cell suspension was centrifuged at about 200×g for 10 minutes at about 4° C. and re-suspended in ice cold enriched DCCM-1 medium. Cells were seeded in 96-well tissue culture plates.
LN cells isolated from GA-immunized animals were stimulated with GA (GMA, Mylan Pharmaceuticals, Inc.) at concentrations as indicated in Tables 16 and 17. A positive control was prepared by treating LN cells with 2.5 μg/mL concavalin A (ConA, a non-specific T cell stimulant). Myelin basic protein (MBP, 10 μg/mL) and enriched DCCM-1 medium served as negative controls. The cells from all groups each were stimulated with the same GA lot. Each reaction was set up in triplicate.
After incubation at about 37° C. in a humidified CO2 incubator for 6 hours, the cells were lysed for total RNA isolation. Total RNA was isolated from treated LN cells using SV 96 Total RNA Isolation System according to the manufacturer's protocol (Promega, Cat. #Z3500). Cells were washed once with Phosphate Buffered Saline (PBS) and lysed in RNA lysis buffer. The lysate was transferred to wells of the SV 96 binding plate. Samples were washed with RNA wash solution and treated with DNase. Total RNA was eluted with nuclease-free water from the binding plate.
After the reverse transcriptase reaction was completed, cDNA samples were used directly for real-time PCR to measure the response biomarker mRNA levels produced by the stimulated cells. […] All probes for target genes contained FAM dye, and probes for the internal control contained VIC®/MGB dye. Samples will be prepared and run in 96-well plates using a Real-Time PCR system (7500, Life Technologies). This system allows direct detection of PCR-product formation by measuring the increase in fluorescent emission continuously during the PCR reaction. A relative quantitation method was used to analyze changes in mouse IL-2, IL-4, IL-5, IL-10, IL-13, IFN-γ and TNF-α expression in GA-treated samples relative to the untreated control (enriched DCCM-1 treated) samples. The Real-Time PCR program was:
The levels of mouse cytokine amplicons (IL-2, IL-4, IL-5, IL-10, IL-13, mIFN-γ and TNF-α) were normalized to internal probe levels (GAPDH) from the same samples. The following equations were used to calculate the relative increase in response to GA stimulation compared to the control sample: ΔCT=CT_target−CT_reference ΔΔCT=−ΔCT_Treated−CT_VC

[2] = Experiment 1, GA-immunized (SJL/J×BALB/C)F1, 2 hour post stimulation, GA 10, ConA 2.5 μg/mL
[3] = Experiment 1, GA-immunized (SJL/J×BALB/C)F1, 4 hour post stimulation, GA 10, MBP 10, ConA 2.5 μg/mL
[4] = Experiment 1, GA-immunized (SJL/J×BALB/C)F1, 6 hour post stimulation, GA 10, MBP 10, ConA 2.5 μg/mL
[5] = Experiment 1, GA-immunized (SJL/J×BALB/C)F1, 24 hour post stimulation, GA 10, MBP 10, ConA 2.5 μg/mL
[6] = Group 1B (GA + CFA), 4 hours post-stimulation, GA 10, MBP 10, ConA 2.5 μg/mL, reference GAPDH
[7] = Group 1B (GA + CFA), 6 hours post-stimulation, GA 10, MBP 10, ConA 2.5 μg/mL, reference GAPDH
[8] = Group 2B (Mannitol + CFA), 4 hours post-stimulation, GA 10, MBP 10, ConA 2.5 μg/mL, reference GAPDH
[9] = Group 2B (Mannitol + CFA), 6 hours post-stimulation, GA 10, MBP 10, ConA 2.5 μg/mL, reference GAPDH
[10] = Group 1C: CD-1, GA-immunized, stimulation 10 μg/mL
[11] = Group 2C: BALB/cByJ, GA-immunized, stimulation 10 μg/mL
[12] = Group 3C: SJL/J, GA-immunized, stimulation 10 μg/mL

**Q.** For “Concanavalin A [ConA, reference compound]”, which “mIFN-γ mRNA Level” value [1, 2] is on record?
**A.** Its value is 40.9 fold change vs control.

**Q.** What about the “mIFN-γ mRNA Level” value [1, 3] of the same molecule?
**A.** The value was 49.3 fold change vs control.

**Q.** And the “mIFN-γ mRNA Level” value [1, 4]?
**A.** Its value is 18.2 fold change vs control.

**Q.** And the “mIFN-γ mRNA Level” value [1, 5]?
**A.** The value was 0.4 fold change vs control.

**Q.** And the “mIFN-γ mRNA Level” value [1, 6]?
**A.** Its value is 29.5 fold change vs control.

**Q.** And the “mIFN-γ mRNA Level” value [1, 7]?
**A.** The value was 3.0 fold change vs control.

**Q.** What about the “mIFN-γ mRNA Level” value [1, 8] of the same molecule?
**A.** Its value is 15.5 fold change vs control.

**Q.** And the “mIFN-γ mRNA Level” value [1, 9]?
**A.** Its value is 8.9 fold change vs control.

**Q.** What about the “TNF-α mRNA Expression” value (TNF-α mRNA in LN cells; Group 1C: CD-1, GA-immunized, stimulation 2.5 μg/mL) of the same molecule?
**A.** The value was 0.6 fold change vs control.

**Q.** And the “TNF-α mRNA Expression” value (TNF-α mRNA in LN cells; Group 2C: BALB/cByJ, GA-immunized, stimulation 2.5 μg/mL)?
**A.** Its value is 0.8 fold change vs control.

**Q.** What about the “TNF-α mRNA Expression” value (TNF-α mRNA in LN cells; Group 3C: SJL/J, GA-immunized, stimulation 2.5 μg/mL) of the same molecule?
**A.** Its value is 0.7 fold change vs control.

**Q.** Which results are given for “L-glutamic acid polymer with L-alanine, L-lysine and L-tyrosine, acetate (salt) [GA]”?
**A.** mIFN-γ mRNA Level [1, 2]: 1.3 fold change vs control; mIFN-γ mRNA Level [1, 3]: 2.1 fold change vs control; mIFN-γ mRNA Level [1, 4]: 4.6 fold change vs control; mIFN-γ mRNA Level [1, 5]: 4.6 fold change vs control; mIFN-γ mRNA Level [1, 6]: 7.0 fold change vs control; mIFN-γ mRNA Level [1, 7]: 2.4 fold change vs control; mIFN-γ mRNA Level [1, 8]: 1.2 fold change vs control; mIFN-γ mRNA Level [1, 9]: 1.8 fold change vs control; TNF-α mRNA Expression (TNF-α mRNA in LN cells; Group 1C: CD-1, GA-immunized, stimulation 0.3 μg/mL): 1.0 fold change vs control; TNF-α mRNA Expression (TNF-α mRNA in LN cells; Group 1C: CD-1, GA-immunized, stimulation 1 μg/mL): 1.1 fold change vs control; TNF-α mRNA Expression (TNF-α mRNA in LN cells; Group 1C: CD-1, GA-immunized, stimulation 3 μg/mL): 1.4 fold change vs control; TNF-α mRNA Expression (TNF-α mRNA in LN cells; [10]): 1.1 fold change vs control; TNF-α mRNA Expression (TNF-α mRNA in LN cells; Group 2C: BALB/cByJ, GA-immunized, stimulation 0.3 μg/mL): 0.1 fold change vs control; TNF-α mRNA Expression (TNF-α mRNA in LN cells; Group 2C: BALB/cByJ, GA-immunized, stimulation 1 μg/mL): 1.0 fold change vs control; TNF-α mRNA Expression (TNF-α mRNA in LN cells; Group 2C: BALB/cByJ, GA-immunized, stimulation 3 μg/mL): 0.8 fold change vs control; TNF-α mRNA Expression (TNF-α mRNA in LN cells; [11]): 0.5 fold change vs control; TNF-α mRNA Expression (TNF-α mRNA in LN cells; Group 3C: SJL/J, GA-immunized, stimulation 0.3 μg/mL): 0.8 fold change vs control; TNF-α mRNA Expression (TNF-α mRNA in LN cells; Group 3C: SJL/J, GA-immunized, stimulation 1 μg/mL): 0.9 fold change vs control; TNF-α mRNA Expression (TNF-α mRNA in LN cells; Group 3C: SJL/J, GA-immunized, stimulation 3 μg/mL): 0.9 fold change vs control; TNF-α mRNA Expression (TNF-α mRNA in LN cells; [12]): 0.8 fold change vs control

B1: MBP: myelin basic protein, a negative control (protein, UniProt P02686 1-304, looked up)
Myelin basic protein: MGNHAGKRELNAEKASTNSETNRGESEKKRNLGELSRTTSEDNEVFGEADANQNNGTSSQDTAVTDSKRTADPKNAWQDAHPADPGSRPHLIRLFSRDAPGREDNTFKDRPSESDELQTIQEDSAATSESLDVMASQKRPSQRHGSKYLATASTMDHARHGFLPRHRDTGILDSIGRFFGGDRGAPKRGSGKDSHHPARTAHYGSLPQKSHGRTQDENPVVHFFKNIVTPRTPPPSQGKGRGLSLSRFSWGAEGQRPGFGYGGRASDYKSAHKGFKGVDAQGTLSKIFKLGGRDSRSGSPMARR
**Q.** Which results are given for B1?
**A.** mIFN-γ mRNA Level [1, 3]: 0.8 fold change vs control; mIFN-γ mRNA Level [1, 4]: 0.2 fold change vs control; mIFN-γ mRNA Level [1, 5]: 0.6 fold change vs control; mIFN-γ mRNA Level [1, 6]: 0.9 fold change vs control; mIFN-γ mRNA Level [1, 7]: 0.6 fold change vs control; mIFN-γ mRNA Level [1, 8]: 1.1 fold change vs control; mIFN-γ mRNA Level [1, 9]: 0.9 fold change vs control; TNF-α mRNA Expression (TNF-α mRNA in LN cells; [10]): 0.8 fold change vs control; TNF-α mRNA Expression (TNF-α mRNA in LN cells; [11]): 0.8 fold change vs control; TNF-α mRNA Expression (TNF-α mRNA in LN cells; [12]): 0.3 fold change vs control
